What follows are sequences tested on T2 cells pulsed with CD133 HLA-A2 peptides (assay: IFN-γ ELISPOT assay of antigen-specific T cell response). Conditions: 1×10^5 CTL co-cultured with 7.5×10^4 T2 cells pulsed with 10 μg/ml of peptides, 20 hours; FIG. 3.
Assay type: cell-based, human
Procedure: To test this hypothesis, effector CD8^+′ T cells were isolated and co-cultured with HLA-A2+ DC pulsed with CD133 peptides to induce antigen-specific CTLs. Antigens-specific T cell responses were evaluated by an IFN-γ ELISPOT assay.
Human monocyte-derived DC was generated using previously described methods. Briefly, monocytes were isolated from PBMC by magnetic immunoselection using EasySep human monocyte enrichment kit (Stem Cell Technologies) in accordance with the manufacturer's instructions and then cultured at […] in 20 ml of GMP CellGenix DC serum-free medium (Cat#20801-0500, Cellgenix) supplemented with 1000 unit/ml of recombinant human GM-CSF (Cat#AF-300-03, Peprotech, Inc) and recombinant human IL-4(Cat#AF-200-04, Peprotech, Inc). Cells were harvested after 3 or 6 days of culture. The DCs were washed and plated in 6-well plates at a concentration of 5×10^6 cells/well IFN-γ (1000 unit/ml) and monophosphoryl lipid A (MPLA, 20-50 μg/ml) was added into the wells to mature the DC for 24 hr or 48 hrs. Prior to some assays, DC was frozen and stored into liquid nitrogen.
In order to evaluate antigen-specific immune responses, CD8^+ T cells were isolated from fresh or frozen apheresis by positive selection using Dynabeads® CD8 Positive Isolation Kit (Life Technologies, Grand Island, N.Y.) and co-cultured with autologous mDC for four weeks. DCs were added weekly. Briefly, mDC was pulsed with synthetic peptides ([…]) for 6-8 hours at 37° C., and then treated with 20 μg/ml Mitomycin C (Sigma-Aldrich, St. Louis, Mo.) for 25 min at 37° C. and 5% CO2. […]
Antigen-specific immune responses were evaluated by the IFN-γ Elispot kit (BD Biosciences) following previously described methods. […] The colored spots, representing cytokine-producing cells, were counted under a dissecting microscope. The results were evaluated by an automated ELISPOT reader system using KS ELISPOT 4.3 software.
“YLQWIEFSI (listed as Homo sapiens) [CD133p753, CD133 HLA-A2 peptide]” was tested, and the “antigen-specific T cell response: recognition of peptide-pulsed T2 cells by peptide-specific CTLs (IFN-γ ELISPOT)” value (“antigen-specific T cell response” for short) was “can efficiently recognize T2 pulsed with these antigens and boost the T cell immune response”. In the case of “ILSAFSVYV (listed as Homo sapiens) [CD133p405, CD133 HLA-A2 peptide, position 405-413]”, the “antigen-specific T cell response” value is reported as “can efficiently recognize T2 pulsed with these antigens and boost the T cell immune response”. “FLLPALIFAV (listed as Homo sapiens) [CD133p804, CD133 HLA-A2 peptide, position 804-813]” was tested, and the “antigen-specific T cell response” value was “can efficiently recognize T2 pulsed with these antigens and boost the T cell immune response”.

Reference: patent US20150359867A1, “OVARIAN CANCER VACCINES AND VACCINATION METHODS” (IMMUNOCELLULAR THERAPEUTICS, LTD., priority 2013, published 2015)
